Data published in patent US9359281B2, “Enantiomers of 2-hydroxy derivatives of fatty acids” (UNIVERSITAT DE LES ILLES BALEARS, priority 2011, dated 2016).

What was measured:
Ras protein = experiment: Ras translocation from membrane to cytoplasm by confocal microscopy; type: cell-based; conditions: human glioma, lung cancer and leukaemia cells
Experimental: The high levels of 2OHOA and SM in the membrane impede the anchoring of the Ras protein on the membrane.
2OHOA increases levels of SM in tumoral cells treated as explained above. […] SM is lipid in the membrane which impedes the bonding of certain molecules involved in the proliferation of cells, such as the Ras protein. In this way, levels of Ras were measured by confocal microscopy, using an antibody marked fluorescently, and we were able to detect that the marker passed from the membrane (FIG. 6: 95-99% of total detected fluorescence in the membrane before treatment) to the cytoplasm (94-97% of fluorescence detected in the inside of the cell after treatment with 2OHOA) in human glioma, lung cancer and leukaemia cells. The translocation of Ras from the membrane to the cytoplasm means an absence of productive interaction between Ras and Receptor-Tirosine-Kinase (RTK) or between Ras and Raf, so the proteins in MAP kinase chain are not activated and the tumoral cells cease to proliferate and programmed cell death starts. Changes in cell physiology induced by the molecules of present invention, have as intermediate effects (prior to the cancer cells death or the regulation of the activity in other cells), the induction of dramatic reductions in DHFR levels and dramatic increases of GFAP levels (FIG. 6).

[1] = tested on: Raf, MEK, MAP kinase (ERK1 y ERK2), Akt and EGFR; experiment: Immunoblot of phosphorylased signalling proteins; type: cell-based, human
Experimental: D: The state of activity (levels of phosphorylased forms) of Akt and EGFR also decreases after incubating with 250 μM of 2OHOA.

enzyme EC 2.7.8.27 = experiment: Activity of enzyme EC 2.7.8.27 in cellular extracts (NBD-Cer); type: biochemical; conditions: homogenised cells, 200 μM, NBD-Cer 2 hours
Experimental: FIG. 4. Compound 2OHOA acts directly on enzyme EC 2.7.8.27. In A, B, C, in all cases, we incubated cells or cellular extracts or means of incubation with the fluorescent stratum of this enzyme NBD-Cer (nitro-benzoxadiazol-il) ceramide], in the presence or absence (control, white bars) of 2OHOA (black bars). Then, we extracted the lipids and determined the levels of formation of NBD-SM per HPTLC (HP-TLC, high performance thin layer chromatography). The values are presented on the ordinate axis as the average±ESM (n=3-5).
B. In vitro experiment of the activity of enzyme EC 2.7.8.27 in cellular extracts, where we measured the activity of the enzyme after killing the cells. […] For these experiments, homogenised cells were incubated with compound 2OHOA (200 μM) and NBD-Cer for 2 hours.

SF268 cells [2] = experiment: Levels of SM in cell membranes, SF268; type: cell-based, human; conditions: SF268, 200 μM [−]2OHOA
Experimental: (§1) The levels of SM, cultivated in the absence (control) or presence of 200 μM of [−]2OHOA, in normal cell membranes (MRC-5 and IMR90) were measured, and also in several types of tumoral cells (see Table 2). In all cases, we detected that the membranes of tumoral cells have SM levels of about half or a third of that in normal cells (FIG. 1). We can therefore assert that SM concentration is a biomarker which indicates tumorgenesis in human cells. On the other hand, treatments with the molecules of the present invention induce an increase of SM in the tumour cells which is not naturally occurring. […] For example, the spectrophotometry determination of solution fluorescence of the SM levels is a very simple, quick and efficient analysis method (FIG. 1D). Thus, this invention has generated a method for diagnosis for detecting the described pathological processes and pathologies in which there are SM level changes, and also for monitoring the efficiency of the therapy using molecules of the present invention and others of similar activity. Based on this knowledge, this invention also includes kits for diagnosing these diseases.

A172 cells = experiment: Cell growth inhibition, A172; type: cell-based, human; set-up: key: +: inhibition of cell growth; −: absence of effect
[3] = tested on: human lung tumour sections (A549 cells); experiment: SM marking (lysenin) in A549 tumour sections from treated mice; type: in vivo; conditions: 600 or 900 mg/kg per day, oral, 50 days
Experimental: C. Upper panel: specific marking by immunocytochemical techniques of the SM (left: lysenin followed by an antibody marked with Alexa 488 fluorophore), of nuclear DNA with Hoechst 33258 (center: Hoechst) or both (right, merge). Figures correspond to human lung tumour sections (A549 cells) formed in immuno-depressed mice treated with a vehicle (control) or with [−]2OHOA at 600 mg/kg per day or at 900 mg/kg per day (oral administration, 50 days).
Bottom panel: The ordinate axis represents the quantification of the fluorescence intensity (arbitrary units) by confocal microscopy in slices of tumours shown in the upper panel (average+average standard deviation), coming from animals treated with a vehicle, or 2OHOA at 600 mg/kg per day (T600) or 900 mg/kg per day (T900) during 50 days. *** P<0.001.

MDA-MB-231 cells = experiment: Levels of SM in cell membranes, MDA-MB-231; type: cell-based, human; conditions: MDA-MB-231, 200 μM [−]2OHOA
Experimental: as §1

C-6 cells = experiment: Cell growth inhibition, C-6; type: cell-based, rat; set-up: key: +: inhibition of cell growth; −: absence of effect
SF268 cells [4] = experiment: Cell growth inhibition, SF268; type: cell-based, human; set-up: key: +: inhibition of cell growth; −: absence of effect
U87 cells = experiment: Levels of SM in cell membranes, U87; type: cell-based, human; conditions: U87, 200 μM [−]2OHOA
Experimental: as §1

U937 cells = experiment: Levels of SM in cell membranes, U937; type: cell-based, human; conditions: U937, 200 μM [−]2OHOA
Experimental: as §1

CCCCCCCC/C=C\CCCCCCC(O)C(=O)O (racemic) [2OHOA, 2-hydroxyoleic acid]
Ras fluorescence detected in the inside of the cell after treatment (Ras protein): 94-97% | state of activity (phosphorylased forms) of Akt and EGFR ([1]; 250 μM): decreases | phosphorylased (active) form of Raf and MEK ([1]; 150, 200 o 250 μM): reduction in state of the (active) phosphorylased form of both proteins | state of activity of MAP kinase (ERK1 y ERK2) ([1]; 150, 200 o 250 μM): dramatic reduction in the state of activity | activation of enzyme EC 2.7.8.27 in cellular extracts (enzyme EC 2.7.8.27): able to activate enzyme EC 2.7.8.27 by direct interaction

CCCCCCCC/C=C\CCCCCCC(O)C(=O)O (stereo not shown) [[−]2OHOA] [[−] HOOC—HOCH—(CH2)6—(CH═CH—CH2)1—(CH2)6—CH3]
% SM after treatment (SF268 cells [2]): 26% | Effect (anti-proliferation effect) (A172 cells): + | levels of SM in A549 tumours [3]: levels of SM significantly increase | % SM after treatment (MDA-MB-231 cells): 31% | Effect (anti-proliferation effect) (C-6 cells): + | Effect (anti-proliferation effect) (SF268 cells [4]): + | % SM after treatment (U87 cells): 21% | % SM after treatment (U937 cells): 24%
